For the test, the system named is NF-κB mediated transcription. Description: NF-κB driven β-lactamase reporter assay in ECV-304 NF-κB.βlaZ cells (AURORA CCF2 fluorescence). The format is cell-based, human. To be noted: 10 μM compound, ECV-304 NF-κB.βlaZ cells stimulated with 10 ng/mL TNF-α or 100 pg/mL IL-1β, 6 hours at 37° C., inhibition of maximum blue/green ratio; for inhibition at 10 µM: Homo sapiens, ECV-304, 6 h, read-out: Percent Inhibition at 10 μM. The procedure, abridged: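 Blue/green (460/530 nm, excitation 395 nm) CCF2 emission ratio quantified NF-κB-driven β-lactamase expression in the stably transfected endothelial-like ECV-304 clone 1E8.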
For orientation: In a reporter assay the amount or activity of a reporter protein is the signal.

As usually defined, the inhibition is the relative decrease from the control value, in per cent.

On to `CC(C)c1cc(C(C)C)c(CC(=O)NS(=O)(=O)Oc2c(C(C)C)cc(C=CC#N)cc2C(C)C)c(C(C)C)c1` [Example 224, [(2,4,6-Triisopropyl-phenyl)-acetyl]-sulfamic acid 4-(2-cyano-vinyl)-2,6-diisopropyl-phenyl ester], for which the inhibition at 10 µM is under 10%. Regarding `CC(C)c1cc(C(C)C)c(CC(=O)NS(=O)(=O)Oc2c(C(C)C)cc(NS(=O)(=O)c3cccs3)cc2C(C)C)c(C(C)C)c1` [Example 225, [(2,4,6-Triisopropyl-phenyl)-acetyl]-sulfamic acid 2,6-diisopropyl-4-(thiophene-2-sulfonylamino)-phenyl ester], the inhibition at 10 µM was 26.4%.

Regarding `CC(C)c1cc(C(C)C)c(CC(=O)NS(=O)(=O)Oc2c(C(C)C)cc(NS(=O)(=O)c3cccc4c(N(C)C)cccc34)cc2C(C)C)c(C(C)C)c1` [Example 226, [(2,4,6-Triisopropyl-phenyl)-acetyl]-sulfamic acid 4-(5-dimethylamino-naphthalene-1-sulfonylamino)-2,6-diisopropyl-phenyl ester], the inhibition at 10 µM stood at 46.3%.

On to `CC(C)c1cc(C(C)C)c(CC(=O)NS(=O)(=O)Oc2c(C(C)C)cc(NS(C)(=O)=O)cc2C(C)C)c(C(C)C)c1` [Example 227, [(2,4,6-Triisopropyl-phenyl)-acetyl]-sulfamic acid 2,6-diisopropyl-4-methanesulfonylamino-phenyl ester], for which the inhibition at 10 µM was 77.3%. With `COC(=O)c1cc(C(C)C)c(OS(=O)(=O)NC(=O)Cc2c(C(C)C)cc(C(C)C)cc2C(C)C)c(C(C)C)c1` [Example 228, 3,5-Diisopropyl-4-{[(2,4,6-triisopropyl-phenyl)-acetyl]sulfamoyloxy}-benzoic acid methyl ester], the inhibition at 10 µM amounted to 76.1%. Turning to `CC(C)c1cc(C(C)C)c(CC(=O)NS(=O)(=O)Oc2c(C(C)C)cc(NC(=O)[C@@H](N)CO)cc2C(C)C)c(C(C)C)c1` [Example 230, [2-(2,4,6-Triisopropyl-phenyl)-acetyl]-sulfamic acid 4-((S)-2-amino-3-hydroxy-propionylamino)-2,6-diisopropyl-phenyl ester; compound with trifluoro-acetic acid], the inhibition at 10 µM stood at 75.2%. The same measure, in the same setting: with `CC(C)c1cc(C(C)C)c(CC(=O)NS(=O)(=O)Oc2c(C(C)C)cc(NC(=O)[C@@H](N)CCC(N)=O)cc2C(C)C)c(C(C)C)c1` [Example 231, [2-(2,4,6-Triisopropyl-phenyl)-acetyl]-sulfamic acid 4-((S)-2-amino-4-carbamoyl-butyrylamino)-2,6-diisopropyl-phenyl ester; compound with trifluoro-acetic acid] the figure was 78.1%; with `CC(C)c1cc(C(C)C)c(CC(=O)NS(=O)(=O)Oc2c(C(C)C)cc(NC(=O)[C@@H](N)C(C)C)cc2C(C)C)c(C(C)C)c1` [Example 232, [2-(2,4,6-Triisopropyl-phenyl)-acetyl]-sulfamic acid 4-((S)-2-amino-3-methyl-butyrylamino)-2,6-diisopropyl-phenyl ester; compound with trifluoro-acetic acid], 76.9%; with `CC(C)c1cc(C(C)C)c(CC(=O)NS(=O)(=O)Oc2c(C(C)C)cc(CO)cc2C(C)C)c(C(C)C)c1` [Example 233, [(2,4,6-Triisopropyl-phenyl)-acetyl]-sulfamic acid 4-hydroxymethyl-2,6-diisopropyl-phenyl ester], 76.9%. Same read-out and setting: then `CC(C)c1cc(C(C)C)c(CC(=O)NS(=O)(=O)Oc2c(C(C)C)cc(C(N)=O)cc2C(C)C)c(C(C)C)c1` [Example 234, [(2,4,6-Triisopropyl-phenyl)-acetyl]-sulfamic acid 4-carbamoyl-2,6-diisopropyl-phenyl ester], with 76.7%; and `CC(C)c1cc(C(C)C)c(CC(=O)NS(=O)(=O)Oc2c(C(C)C)cc(NC(=S)Nc3cc(Cl)cc(Cl)c3)cc2C(C)C)c(C(C)C)c1` [Example 235, [(2,4,6-Triisopropyl-phenyl)-acetyl]-sulfamic acid 4-[3-(3,5-dichloro-phenyl)-thioureido]-2,6-diisopropyl-phenyl ester], with 146%.

Consider `C/C(=C\c1ccccc1)C(=O)NS(=O)(=O)Oc1c(C(C)C)cccc1C(C)C` [Example 236, ((E)-2-Methyl-3-phenyl-acryloyl)-sulfamic acid 2,6-diisopropyl-phenyl ester], for which the inhibition at 10 µM came to 79.4%.

On to `CC(C)c1cccc(C(C)C)c1OS(=O)(=O)NC(=O)c1cc2ccccc2oc1=O` [Example 237, (2-Oxo-2H-chromene-3-carbonyl)-sulfamic acid 2,6-diisopropyl-phenyl ester], for which the inhibition at 10 µM amounted to 57.1%. On the same count and under the same terms, with `CCCCCCCCCCCCCCCCS(=O)(=O)NC(=O)Nc1c(C(C)C)cccc1C(C)C` [Example 238, N-[2,6-bis(1-methylethyl)phenyl]-N′-(hexadecylsulfonyl)-urea] the figure was 12%. Regarding `CCOc1ccc2nc(S(=O)(=O)NC(=O)Nc3c(C(C)C)cccc3C(C)C)sc2c1` [Example 239, N-[2,6-bis(1-methylethyl)phenyl]-N′-[(6-ethoxy-2-benzothiazolyl)sulfonyl]-urea], the inhibition at 10 µM was under 10%.

Consider `CCCCCCCCCCCCCCS(=O)(=O)NC(=O)Nc1c(C(C)C)cccc1C(C)C` [Example 240, N-[2,6-bis(1-methylethyl)phenyl]-N′-(tetradecylsulfonyl)-urea], for which the inhibition at 10 µM turned out to be 10.3%. On the same count and under the same terms, then `CCCCCCCCCCCCCCS(=O)(=O)N(C)C(=O)Nc1c(C(C)C)cccc1C(C)C` [Example 241, N′-[2,6-bis(1-methylethyl)phenyl]-N-methyl-N-(tetradecylsulfonyl)-urea], with under 10%. On the same count and under the same terms, with `CCCCCCCCCCCCCS(=O)(=O)NC(=O)Nc1c(C(C)C)cccc1C(C)C` [Example 242, N-[2,6-bis(1-methylethyl)phenyl]-N′-(tridecylsulfonyl)urea] the figure was under 10%. Same read-out and setting: with `CCCCCCCCC(c1ccccc1)S(=O)(=O)NC(=O)Nc1c(C(C)C)cccc1C(C)C` (stereo not drawn) [Example 243, N-[2,6-bis(1-methylethyl)phenyl]-N′-(1-phenyl-1-nonylsulfonyl)urea] the figure was under 10%; with `CCCCCCCCC(C)S(=O)(=O)NC(=O)Nc1c(C(C)C)cccc1C(C)C` (stereo not drawn) [Example 244, N-[2,6-bis(1-methylethyl)phenyl]-N′-(2-decylsulfonyl)urea], under 10%; with `CCCCCCCCCCCCCC(c1ccccc1)S(=O)(=O)NC(=O)Nc1c(C(C)C)cccc1C(C)C` (stereo not drawn) [Example 245, N-[2,6-bis(1-methylethyl)phenyl]-N′-(1-phenyl-1-tetradecylsulfonyl)urea], 16.1%. As to `CCCCCCCCCCCCCCCCC(C)S(=O)(=O)NC(=O)Nc1c(C(C)C)cccc1C(C)C` (stereo not drawn) [Example 246, N-[2,6-bis(1-methylethyl)phenyl]-N′-(2-octadecylsulfonyl)urea], the inhibition at 10 µM was under 10%. Still for that read-out and setting: with `CCCCCCCCCCCCCCCCC(C)S(=O)(=O)NC(=O)Nc1c(OC)cc(OC)cc1OC` (stereo not drawn) [Example 247, N-[2,4,6-trimethoxyphenyl]-N′-(2-octadecylsulfonyl)urea] the figure was 14.8%; with `CCCCCCCCCCCCCC(C)(C)S(=O)(=O)NC(=O)Nc1c(C(C)C)cccc1C(C)C` [Example 248, N-[2,6-bis(1-methylethyl)phenyl]-N′-(2-methyl-2-pentadecylsulfonyl)urea], 11.4%. On the same count and under the same terms, with `CCCCCCCCCCCCCC(C)(C)S(=O)(=O)NC(=O)Nc1c(OC)cc(OC)cc1OC` [Example 249, N-[2,4,6-trimethoxyphenyl]-N′-(2-methyl-2-pentadecylsulfonyl)urea] the figure was under 10%.

In the case of `CCCCCCCCCCCCOC(=O)NS(=O)(=O)Nc1c(C(C)C)cccc1C(C)C` [Example 250, Carbamic acid, [[[2,6-bis(1-methylethyl)phenyl]amino]sulfonyl]-, dodecyl ester], the “Percent Inhibition at 10 μM” value (10 µM) is under 10%. Take “[2-(2,4,6-Triisopropyl-phenyl)-acetyl]-sulfamic acid 4-(benzylamino-methyl)-2,6-diisopropyl-phenyl ester; compound with generic inorganic neutral component [Example 229]”: the “Percent Inhibition at 10 μM” value worked out at 75.79%.

These data come from patent publication US20020183384A1, “Methods of treating nuclear factor-kappa B mediated diseases and disorders” (priority 2001, published 2002).
